For this assay, the target named is α4β7 integrin (Homo sapiens (Human), UniProt P13612+P26010). Nature of the assay: α4β7 Integrin Cell Capture Assay. It is filed as cell-based.
Where [1] appears, read: RPMI8866 cells captured on MadCAM-1 extracellular domain-coated plate.

In US11116760B2 (Gilead Sciences, Inc., priority 2018, dated 2021) one finds EC50 data, which are given here for 22 molecules.

By EC50 is commonly meant the concentration at which the effect is half-maximal. A higher EC50 goes with weaker potency.

Sequence of α4β7 integrin (P13612 34-1032): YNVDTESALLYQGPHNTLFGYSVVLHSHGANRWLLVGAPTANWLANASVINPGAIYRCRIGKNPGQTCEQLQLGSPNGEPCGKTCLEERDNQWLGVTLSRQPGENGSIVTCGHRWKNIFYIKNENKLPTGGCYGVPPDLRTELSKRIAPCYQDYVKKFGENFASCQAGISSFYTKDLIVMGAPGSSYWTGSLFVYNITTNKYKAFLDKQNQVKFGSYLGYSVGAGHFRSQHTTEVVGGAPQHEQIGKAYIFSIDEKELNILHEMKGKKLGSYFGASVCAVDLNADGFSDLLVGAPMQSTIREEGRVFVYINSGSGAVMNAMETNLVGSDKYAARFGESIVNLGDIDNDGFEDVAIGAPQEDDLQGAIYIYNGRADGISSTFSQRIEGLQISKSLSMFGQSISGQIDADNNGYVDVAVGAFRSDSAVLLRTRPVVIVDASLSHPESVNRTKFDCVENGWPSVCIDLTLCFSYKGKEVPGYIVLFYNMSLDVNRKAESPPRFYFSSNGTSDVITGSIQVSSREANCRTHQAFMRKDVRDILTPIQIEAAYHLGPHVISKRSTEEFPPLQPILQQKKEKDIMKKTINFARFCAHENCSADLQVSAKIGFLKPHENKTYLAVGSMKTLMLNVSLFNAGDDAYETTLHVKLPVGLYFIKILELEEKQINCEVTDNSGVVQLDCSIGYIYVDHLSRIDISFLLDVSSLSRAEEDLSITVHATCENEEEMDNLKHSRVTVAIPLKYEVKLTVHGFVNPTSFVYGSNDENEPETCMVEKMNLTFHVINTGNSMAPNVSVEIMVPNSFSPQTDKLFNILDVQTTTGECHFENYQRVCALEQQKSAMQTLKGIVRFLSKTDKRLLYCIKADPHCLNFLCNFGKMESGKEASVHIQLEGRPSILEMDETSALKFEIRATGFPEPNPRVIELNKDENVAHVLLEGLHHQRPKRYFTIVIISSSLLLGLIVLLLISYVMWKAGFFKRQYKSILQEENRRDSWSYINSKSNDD
Sequence of α4β7 integrin (P26010 20-798): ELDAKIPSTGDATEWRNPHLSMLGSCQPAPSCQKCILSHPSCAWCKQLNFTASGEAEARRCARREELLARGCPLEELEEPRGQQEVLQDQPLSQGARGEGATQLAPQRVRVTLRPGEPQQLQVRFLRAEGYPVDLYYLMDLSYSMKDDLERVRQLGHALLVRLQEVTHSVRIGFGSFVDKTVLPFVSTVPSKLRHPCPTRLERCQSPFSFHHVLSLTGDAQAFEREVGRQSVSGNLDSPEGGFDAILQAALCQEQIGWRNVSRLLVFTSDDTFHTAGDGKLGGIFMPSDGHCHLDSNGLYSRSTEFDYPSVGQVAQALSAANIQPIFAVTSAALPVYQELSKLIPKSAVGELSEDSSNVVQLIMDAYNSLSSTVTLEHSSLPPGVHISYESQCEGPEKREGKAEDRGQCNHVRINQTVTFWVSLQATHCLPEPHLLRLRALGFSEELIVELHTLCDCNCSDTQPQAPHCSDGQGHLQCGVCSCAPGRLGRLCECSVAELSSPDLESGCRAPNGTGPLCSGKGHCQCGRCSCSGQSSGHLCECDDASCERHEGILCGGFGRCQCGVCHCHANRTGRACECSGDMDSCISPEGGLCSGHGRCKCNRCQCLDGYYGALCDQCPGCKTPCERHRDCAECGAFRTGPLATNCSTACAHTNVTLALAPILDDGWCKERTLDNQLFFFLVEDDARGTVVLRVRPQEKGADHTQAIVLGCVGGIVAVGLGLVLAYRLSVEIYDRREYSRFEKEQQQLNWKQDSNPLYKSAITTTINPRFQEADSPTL

Under setting [1], `Cc1cc(N2CCOC[C@@H]2C(F)(F)F)cc(F)c1C(=O)N[C@@H](Cc1cc(F)c(-c2cc3cnccc3n(C)c2=O)c2ncccc12)C(=O)O` [Example 464] had an EC50 of 0.13 nM.

`Cc1cnc(-c2c(F)cc(C[C@H](NC(=O)c3c(C)cc(N4CCOC[C@@H]4C(F)(F)F)cc3F)C(=O)O)c3cccnc23)nc1C` [Example 465]: the response under setting [1] was half-maximal at 1.53 nM (EC50). As for `Cc1cc(N2CCOC3(CC3)C2)cc(F)c1C(=O)N[C@@H](Cc1ccc(-c2c(C(F)(F)F)cc(C)n(C)c2=O)c2ncccc12)C(=O)O` [Example 466], the EC50 under setting [1] amounted to 0.581 nM. On to `Cc1cc(N2CCOC[C@@H]2C(F)(F)F)cc(F)c1C(=O)N[C@@H](Cc1ccc(-c2cnc(C)n(C)c2=O)c2ncccc12)C(=O)O` [Example 467], for which, under setting [1], the midpoint of the response, the EC50, lay at 0.238 nM. The same measure, in the same setting: in the case of `Cc1cc(C(F)(F)F)c(-c2ccc(C[C@H](NC(=O)c3c(F)cc(N4CCO[C@@H](C)[C@@H]4C(F)(F)F)cc3F)C(=O)O)c3cccnc23)c(=O)n1C` [Example 468] it was 0.189 nM; in that of `Cc1cc(N2CCOC[C@@H]2C(F)(F)F)cc(F)c1C(=O)N[C@@H](Cc1ccc(-c2cc3cnccc3n(C)c2=O)c2ncccc12)C(=O)O` [Example 469], 0.103 nM. Still for that read-out and setting: in the case of `Cc1cc(C(F)(F)F)c(-c2ccc(C[C@H](NC(=O)c3c(F)cc(N4CCOC[C@@H]4C(F)(F)F)cc3C(C)C)C(=O)O)c3cccnc23)c(=O)n1C` [Example 470] it was 0.181 nM; in that of `CCc1cc(N2CCOC[C@@H]2C(F)(F)F)cc(F)c1C(=O)N[C@@H](Cc1ccc(-c2c(C(F)(F)F)cc(C)n(C)c2=O)c2ncccc12)C(=O)O` [Example 471], 0.179 nM. On to `Cc1cc(C(F)(F)F)c(-c2ccc(C[C@H](NC(=O)c3c(F)cc(N4CCc5ccccc5[C@@H]4C(F)(F)F)cc3F)C(=O)O)c3cccnc23)c(=O)n1C` [Example 472], for which the EC50 under setting [1] stood at 0.331 nM. Turning to `Cn1c(=O)n(-c2ccc(C[C@H](NC(=O)c3c(F)cc(N4CCOC[C@@H]4C(F)(F)F)cc3F)C(=O)O)c3cccnc23)c(=O)c2cnccc21` [Example 473], under setting [1], the EC50 is 0.196 nM. Compared with the last molecule, the EC50 is about 1.7-fold lower.

As to `Cn1c(=O)n(-c2ccc(C[C@H](NC(=O)c3c(F)cc(N4CCOC[C@@H]4C(F)(F)F)cc3F)C(=O)O)c3cccnc23)c(=O)c2ccncc21` [Example 474], under setting [1], the EC50 worked out at 0.112 nM. Same read-out and setting: in the case of `CC[C@@H](Nc1cc(F)c(C(=O)N[C@@H](Cc2ccc(-n3c(=O)c4ccncc4n(C)c3=O)c3ncccc23)C(=O)O)c(F)c1)C(F)(F)F` [Example 475] it was 0.157 nM. On the same count and under the same terms, in the case of `Cc1cc(N2CC(F)(F)C2)c(-c2ccc(C[C@H](NC(=O)c3c(F)cc(N4CCOC[C@@H]4C(F)(F)F)cc3F)C(=O)O)c3cccnc23)c(=O)n1C` [Example 476] it was 0.337 nM; in that of `Cc1cc(N2CCOC[C@@H]2C(F)(F)F)cc(F)c1C(=O)N[C@@H](Cc1ccc(-c2nc(C)c(C)n(C)c2=O)c2ncccc12)C(=O)O` [Example 477], 0.115 nM; in that of `CN(C)c1ccc2c(c1)c(=O)n(-c1ccc(C[C@H](NC(=O)c3c(F)cc(N4CCOC[C@@H]4C(F)(F)F)cc3F)C(=O)O)c3cccnc13)c(=O)n2C` [Example 478], 0.394 nM. On the same count and under the same terms, in the case of `CC[C@@H](Nc1cc(F)c(C(=O)N[C@@H](Cc2ccc(-c3c(C(F)(F)F)n(C)cc(C)c3=O)c3ncccc23)C(=O)O)c(F)c1)C(F)(F)F` [Example 479] it was 1.19 nM; in that of `Cc1cc(C(F)(F)F)c(-c2ccc(C[C@H](NC(=O)c3c(F)cc(N4C[C@H]5C[C@@H]4CO5)cc3F)C(=O)O)c3cccnc23)c(=O)n1C` [Example 480], 0.297 nM; in that of `CC[C@@H](Nc1cc(F)c(C(=O)N[C@@H](Cc2ccc(-c3cc(OC)cn(C)c3=O)c3ncccc23)C(=O)O)c(F)c1)C(F)(F)F` [Example 481], 1.48 nM. As to `Cc1cnc(-c2ccc(C[C@H](NC(=O)c3c(C)cc(N4CCOC[C@@H]4C(F)(F)F)cc3F)C(=O)O)c3cccnc23)nc1C` [Example 482], it took 1.5 nM to reach a half-maximal effect under setting [1] (EC50). Same read-out and setting: in the case of `Cc1cc(C(F)(F)F)c(-c2ccc(C[C@H](NC(=O)c3c(F)cc(N4C[C@H]5C[C@H]5[C@@H]4C(F)(F)F)cc3F)C(=O)O)c3cccnc23)c(=O)n1C` [Example 483] it was 0.544 nM; in that of `Cn1c(=O)c(-c2ccc(C[C@H](NC(=O)c3c(F)cc(N4CCOC[C@@H]4C(F)(F)F)cc3F)C(=O)O)c3cccnc23)nc2ccccc21` [Example 484], 0.143 nM. Regarding “(S)-3-(8-(2-chloro-4-cyanophenyl)quinolin-5-yl)-2-(2,6-difluoro-4-((phenoxycarbonyl)amino)benzamido)propanoic acid [Example 41]”, the EC50 (Table 1, capture of α4β7 expressing RPM18866 cells on MadCAM-1 extracellular domain-coated plate) turned out to be 7.7 nM.
